Activity data for one molecule are collected here from ChEMBL document CHEMBL2073970, “Expression cloning and functional characterization of the kidney cortex high-affinity proton-coupled peptide transporter” (Proc Natl Acad Sci U S A, 1996).

SMILES strings stand for the structures.

In this assay the target is T1, Solute carrier family 15 member 2 (Rattus norvegicus) (UniProt Q63424).
T1 sequence (whole entry): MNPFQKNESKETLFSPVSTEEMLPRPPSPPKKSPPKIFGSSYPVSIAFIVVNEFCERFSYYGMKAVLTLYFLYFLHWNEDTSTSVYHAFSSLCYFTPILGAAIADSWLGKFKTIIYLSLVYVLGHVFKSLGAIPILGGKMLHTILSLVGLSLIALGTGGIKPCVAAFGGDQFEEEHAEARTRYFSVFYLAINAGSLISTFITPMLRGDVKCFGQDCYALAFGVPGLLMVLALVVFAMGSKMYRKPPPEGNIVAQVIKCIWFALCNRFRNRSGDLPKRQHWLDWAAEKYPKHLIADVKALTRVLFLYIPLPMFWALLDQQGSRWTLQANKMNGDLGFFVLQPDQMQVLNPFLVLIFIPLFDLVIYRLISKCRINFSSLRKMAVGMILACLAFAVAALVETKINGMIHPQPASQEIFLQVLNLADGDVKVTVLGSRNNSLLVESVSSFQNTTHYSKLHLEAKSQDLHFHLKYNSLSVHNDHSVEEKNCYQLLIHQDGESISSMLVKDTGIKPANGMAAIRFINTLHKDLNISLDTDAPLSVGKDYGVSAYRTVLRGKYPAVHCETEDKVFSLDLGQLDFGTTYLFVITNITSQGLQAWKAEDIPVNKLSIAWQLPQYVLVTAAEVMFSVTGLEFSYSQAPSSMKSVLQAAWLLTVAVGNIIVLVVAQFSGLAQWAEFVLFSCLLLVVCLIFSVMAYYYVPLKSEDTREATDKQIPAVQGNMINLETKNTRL
The assay can be described thus: TP_TRANSPORTER: inhibition of Cefadroxil uptake (Cefadroxil: 25 uM, Loracarbef: 5000uM) in Xenopus laevis oocytes. The settings on record: Oocyte. It counts as functional, cell-based.

Consider `N[C@@H](C(=O)N[C@@H]1C(=O)N2C(C(=O)O)=C(Cl)CC[C@H]12)c1ccccc1`, for which the Activity entry was “inhibitor [15% (at a rough estimate) of control]”.
